# Experimental data published in PubChem BioAssay AID1918999 (Molecular Pharmacology Branch, DTP, NCI, 2023).
# Values joined by “and” are separate entries in the source; they are usually repeats but may differ in a detail not shown here. Identical values can stand only once.
# Tested on: 556581-035-R-J1-PDC complex spheroid growth
# Assay: Anticancer human tumor 556581-035-R-J1-PDC patient-derived ovarian carcinoma cell line growth inhibition [AhR]
# Settings: for viability, T/C: stronger effect = lower value
# Procedure, shortened: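 Agents were dosed in half-log steps down from roughly clinical Cmax, or from 10 microM where Cmax was unknown, alone and with AhR antagonists. Read-out: percent test/control growth of tumor spheroids containing HUVEC and MSC stromal cells.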
# [1] = curve of first compound, second compound 0.1 µM
# [2] = curve of first compound, second compound 0.316 µM
# [3] = curve of first compound, second compound 1 µM
# [4] = curve of first compound, second compound 3.16 µM
# [5] = curve of first compound, second compound 10 µM
# [6] = second compound 0.1 µM, first compound 0.000949 µM
# [7] = second compound 0.1 µM, first compound 0.003 µM
# [8] = second compound 0.1 µM, first compound 0.00949 µM
# [9] = second compound 0.1 µM, first compound 0.03 µM
# [10] = second compound 0.1 µM, first compound 0.0949 µM
# [11] = second compound 0.1 µM, first compound 0.3 µM
# [12] = second compound 0.316 µM, first compound 0.000949 µM
# [13] = second compound 0.316 µM, first compound 0.003 µM
# [14] = second compound 0.316 µM, first compound 0.00949 µM
# [15] = second compound 0.316 µM, first compound 0.03 µM
# [16] = second compound 0.316 µM, first compound 0.0949 µM
# [17] = second compound 0.316 µM, first compound 0.3 µM
# [18] = second compound 1 µM, first compound 0.000949 µM
# [19] = second compound 1 µM, first compound 0.003 µM
# [20] = second compound 1 µM, first compound 0.00949 µM
# [21] = second compound 1 µM, first compound 0.03 µM
# [22] = second compound 1 µM, first compound 0.0949 µM
# [23] = second compound 1 µM, first compound 0.3 µM
# [24] = second compound 3.16 µM, first compound 0.000949 µM
# [25] = second compound 3.16 µM, first compound 0.003 µM
# [26] = second compound 3.16 µM, first compound 0.00949 µM
# [27] = second compound 3.16 µM, first compound 0.03 µM
# [28] = second compound 3.16 µM, first compound 0.0949 µM
# [29] = second compound 3.16 µM, first compound 0.3 µM
# [30] = second compound 10 µM, first compound 0.000949 µM
# [31] = second compound 10 µM, first compound 0.003 µM
# [32] = second compound 10 µM, first compound 0.00949 µM
# [33] = second compound 10 µM, first compound 0.03 µM
# [34] = second compound 10 µM, first compound 0.0949 µM
# [35] = second compound 10 µM, first compound 0.3 µM
# 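For viability, T/C in this document: compound exposure lasted 7 days; 100% = DMSO vehicle control growth.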
Structure (SMILES),IC50 [1] [nM],IC50 [2] [nM],IC50 [3] [nM],IC50 [4] [nM],IC50 [5] [nM],"viability, T/C [6] [%]","viability, T/C [7] [%]","viability, T/C [8] [%]","viability, T/C [9] [%]","viability, T/C [10] [%]","viability, T/C [11] [%]","viability, T/C [12] [%]","viability, T/C [13] [%]","viability, T/C [14] [%]","viability, T/C [15] [%]","viability, T/C [16] [%]","viability, T/C [17] [%]","viability, T/C [18] [%]","viability, T/C [19] [%]","viability, T/C [20] [%]",further results
CCc1c2c(nc3ccc(O)cc13)-c1cc3c(c(=O)n1C2)COC(=O)[C@]3(O)CC + Cc1ccccc1N=Nc1ccc(NC(=O)c2ccnn2C)c(C)c1,21.2,17,18.8,20.5,22.1,97.1,87.2,64.8,42,27.1,12.8,98.1,86.4,64.3,36.5,18.3,12.7,98.8,82.5,64.1,"viability, T/C [21]: 41.5%; viability, T/C [22]: 23.7%; viability, T/C [23]: 16.7%; viability, T/C [24]: 84%; viability, T/C [25]: 86.5%; viability, T/C [26]: 74.6%; viability, T/C [27]: 37.2%; viability, T/C [28]: 20.7%; viability, T/C [29]: 14.1%; viability, T/C [30]: 94.5%; viability, T/C [31]: 88.3%; viability, T/C [32]: 72.9%; viability, T/C [33]: 40.8%; viability, T/C [34]: 23.2%; viability, T/C [35]: 14.2%"
CC(C)CC(NC(=O)C(Cc1ccccc1)NC(=O)c1cnccn1)B(O)O (configuration not stated) + Cc1cncc(-c2nc(NCCc3c[nH]c4ccccc34)c3ncn(C(C)C)c3n2)c1,5.84,5.98,6.08,5.93,5.16,96.7,103,13.8,0.14,0.08,0.23,101,113,12,1.1,0.12,1.12,106,110,13.4,"viability, T/C [21]: 0.14%; viability, T/C [22]: 0.09%; viability, T/C [23]: 0.67%; viability, T/C [24]: 103%; viability, T/C [25]: 105%; viability, T/C [26]: 12.7%; viability, T/C [27]: 1.05%; viability, T/C [28]: 0.7%; viability, T/C [29]: 2.06%; viability, T/C [30]: 89.9%; viability, T/C [31]: 87.8%; viability, T/C [32]: 7.45%; viability, T/C [33]: 0.99%; viability, T/C [34]: 0.21%; viability, T/C [35]: 1.28%"
CC1COCCN1c1cc(-c2ccnn2C)c2ccnc(-c3ccn[nH]3)c2n1 (configuration not stated),–,–,–,–,–,–,–,–,–,–,–,–,–,–,–,–,–,–,–,–,"viability, T/C (compound 0.00316 µM): 97.2% and 110% and 109%; viability, T/C (compound 0.01 µM): 101% and 105% and 102%; viability, T/C (compound 0.0316 µM): 105% and 95.4% and 98.4%; viability, T/C (compound 0.1 µM): 78.3% and 80.3% and 80.1%; viability, T/C (compound 0.316 µM): 58.9% (2×) and 65.4%; viability, T/C (compound 1 µM): 45.2% and 48.2% and 48.4%; IC50 (curve of compound): 670 nM and 897 nM and 827 nM"
